Test system: template not forming a G4 structure (PEPu24T mut)
Experiment: Taq polymerase stop (primer extension) assay, non-G4 template
Format: biochemical
Text: To challenge all the synthesized compounds (2–11 and 25–29) in a more intricate context, we conducted a Taq polymerase stop assay to evaluate their capacity to impede DNA synthesis through G4 stabilization. In this assay, we compared the progress of the Taq DNA polymerase along two distinct DNA templates: one with a G4 structure (Figure 5) and another serving as a non-G4 control (Figure S21). If an external species (e.g., G4 ligand) binds and stabilizes the G4 structure, the polymerase will be partially halted. The extent of this DNA polymerase stalling is dependent on the ability of the compound to stabilize the G4 on the DNA template. The increased G4 stabilization can be detected as a reduction in the amount of newly synthesized DNA that has reached the end of the DNA template (full-length/end-product). Analysis of these shorter terminated DNA products will give information about the precise location of the DNA polymerase stalling with a single nucleotide resolution. If the ligand imposes little to no stabilization or binding, the G4 is readily resolved by the DNA polymerase, and no difference in the amount of DNA end-product can therefore be expected upon the addition of the compound. […]
The images were quantified using ImageJ 1.53e software and the percentage of full-length product compared to a sample without compound was calculated. […]

concentration at which an effect on the Taq polymerase was observed in the absence of a G4 structure: > 4 µM
SMILES: Cc1cc(C)c2nc(Nc3nc(C)cc(NCCCN(C)C)n3)nc(C)c2c1 [Compound 5, N4-(3-(Dimethylamino)propyl)-6-methyl-N2-(4,6,8-trimethylquinazolin-2-yl)pyrimidine-2,4-diamine]
